Measurements taken from paper PMC10377034, “Syntheses of 25-Adamantyl-25-alkyl-2-methylidene-1α,25-dihydroxyvitamin D3 Derivatives with Structure–Function Studies of Antagonistic and Agonistic Active Vitamin D Analogs” (Biomolecules, 2023).
Where two headings read alike, the source gives them in different places.

Columns and labels:
VDR with RXRα = molecular target: T1, VDR with RXRα (Homo sapiens, UniProt P11473); assay: Mammalian two-hybrid assay, interaction of the VDR with RXRα
T1 sequence (P11473 1-427): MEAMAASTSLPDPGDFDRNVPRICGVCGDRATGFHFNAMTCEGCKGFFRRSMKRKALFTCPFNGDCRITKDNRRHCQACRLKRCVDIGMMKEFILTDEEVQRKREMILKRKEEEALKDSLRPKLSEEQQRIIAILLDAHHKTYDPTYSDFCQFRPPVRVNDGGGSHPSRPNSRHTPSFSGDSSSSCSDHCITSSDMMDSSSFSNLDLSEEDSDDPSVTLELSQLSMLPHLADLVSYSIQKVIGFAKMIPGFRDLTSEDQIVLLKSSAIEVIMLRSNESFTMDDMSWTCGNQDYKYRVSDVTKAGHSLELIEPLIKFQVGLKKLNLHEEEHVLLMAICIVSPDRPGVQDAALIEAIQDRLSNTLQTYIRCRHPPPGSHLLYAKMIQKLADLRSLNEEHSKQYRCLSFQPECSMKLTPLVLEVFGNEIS
T1 sequence (P19793 1-462 partner): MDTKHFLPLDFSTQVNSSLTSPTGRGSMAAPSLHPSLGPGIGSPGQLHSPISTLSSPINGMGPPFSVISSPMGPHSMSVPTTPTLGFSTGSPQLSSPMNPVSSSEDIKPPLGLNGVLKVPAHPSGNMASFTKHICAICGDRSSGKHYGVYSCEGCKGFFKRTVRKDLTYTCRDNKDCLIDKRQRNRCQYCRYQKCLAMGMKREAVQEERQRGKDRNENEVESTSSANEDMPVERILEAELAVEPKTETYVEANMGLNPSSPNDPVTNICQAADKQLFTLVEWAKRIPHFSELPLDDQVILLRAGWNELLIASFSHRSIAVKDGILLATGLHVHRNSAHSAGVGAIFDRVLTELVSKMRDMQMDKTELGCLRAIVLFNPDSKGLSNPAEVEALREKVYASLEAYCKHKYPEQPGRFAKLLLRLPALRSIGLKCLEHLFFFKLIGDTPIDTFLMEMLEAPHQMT

[1] = tested on: CYP24A1 expression in U937 cells; assay: CYP24A1 expression (RT-qPCR) in U937 cells; settings: U937 blood cells, 100 nM, 24 h
[2] = tested on: CYP24A1 expression in HaCaT cells; assay: CYP24A1 expression (RT-qPCR) in HaCaT cells; settings: HaCaT skin cells, 100 nM, 24 h
recombinant hVDR-LBD [3] = molecular target: T2, recombinant hVDR-LBD (Homo sapiens, UniProt P11473); assay: biochemical
T2 sequence (P11473 140-427): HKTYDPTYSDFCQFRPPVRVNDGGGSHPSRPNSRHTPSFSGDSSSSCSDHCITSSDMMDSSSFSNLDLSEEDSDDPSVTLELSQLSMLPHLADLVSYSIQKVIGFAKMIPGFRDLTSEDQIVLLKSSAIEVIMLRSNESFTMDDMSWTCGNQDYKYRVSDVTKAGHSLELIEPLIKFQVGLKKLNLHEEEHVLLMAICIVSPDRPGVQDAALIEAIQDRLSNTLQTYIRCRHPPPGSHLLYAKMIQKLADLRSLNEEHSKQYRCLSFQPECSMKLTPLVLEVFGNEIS

VDR with SRC-1 = molecular target: T3, VDR with SRC-1 (Homo sapiens, UniProt P11473); assay: Mammalian two-hybrid assay, VDR binding to SRC-1
T3 sequence (P11473 1-427): T1 sequence (P11473 1-427)
T3 sequence (Q15788 595-771 partner limits assumed): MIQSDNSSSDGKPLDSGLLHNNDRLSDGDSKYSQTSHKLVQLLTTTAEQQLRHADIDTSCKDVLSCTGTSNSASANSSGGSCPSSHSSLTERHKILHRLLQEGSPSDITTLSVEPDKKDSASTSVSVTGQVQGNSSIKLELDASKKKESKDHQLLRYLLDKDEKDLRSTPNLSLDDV

hVDR = molecular target: T4, hVDR (Homo sapiens, UniProt P11473); assay: VDR transactivation luciferase reporter assay in HEK293 cells (SPP×3-tk-LUC); type: cell-based; settings: for Transcriptional activity efficacy: 1,25(OH)2D3 = 100%; for Emax: read-out: Transcriptional Activity % Efficacy of That of 1 (converted)
T4 construct: expressed in transfected cells; host or cells: HEK293
T4 sequence (P11473 1-427): T1 sequence (P11473 1-427)
Protocol: The transcriptional activity of the 25-alkylvitamin D analogs on the VDR was evaluated via a luciferase reporter assay in HEK293 human kidney cells transfected with an hVDR expression vector and a luciferase reporter with mouse osteopontin vitamin D response elements (VDREs, SPP×3-tk-LUC).
Transfections of 50 ng of TK-Spp × 3-LUC reporter plasmid, 10 ng of pCMX-β-galactosidase, and 15 ng of pCMX-VDR for each well of a 96-well plate were performed in HEK293 cells using the calcium phosphate coprecipitation method, as described previously. The mammalian two-hybrid assay for cofactor interaction with VDR used 50 ng of TK-MH100(UAS) × 3- LUC reporter plasmid, 10 ng of pCMX-β-galactosidase, 15 ng of pCMX-GAL4-RXRα, pCMX-GAL4-SRC1, or pCMX-GAL4-NCoR, and 15 ng of pCMX-VP16-VDR for each well of a 96-well plate. Luciferase and β-galactosidase activities were measured with a luminometer and a microplate reader (Molecular Devices, Sun Jose, CA, USA), respectively. Luciferase values were normalized to the internal β-galactosidase control.
HEK293 cells were co-transfected with TK-Spp × 3-LUC reporter plasmid and pCMX−VDR, and 8 h after transfection the cells were treated with several concentrations of each compound. After 24 h, the cells were harvested for assaying luciferase and β-galactosidase activity using a luminometer (Molecular Devices, Sunnyvale, CA, USA).

[4] = tested on: CYP24A1 expression in SW480 cells; assay: CYP24A1 expression (RT-qPCR) in SW480 cells; settings: SW480 intestine cells, 100 nM, 24 h
[5] = tested on: human dedifferentiated fat (DFAT) cells; assay: Osteogenic differentiation assay: ALP activity in human DFAT cells; type: cell-based; settings: osteogenic medium, 100 nM, 7 days, natural hormone 1 = 100%
Protocol: Mature adipocytes from the adipose tissue of mammals such as humans and rodents can be dedifferentiated into pluripotent cells using ceiling culture. Dedifferentiated fat (DFAT) cells have potential applications in both regenerative medicine and injury healing, as well as mesenchymal stem cells, embryonic stem cells, and induced pluripotent stem cells. The osteogenic activity of vitamin D derivatives was assessed based on alkaline phosphatase (ALP) activity.
Samples of human subcutaneous adipose tissue were obtained from patients who underwent surgery in the Department of Pediatric Surgery at Nihon University Itabashi Hospital (Tokyo, Japan). The patients gave their written informed consent, and the Ethics Committee of Nihon University School of Medicine approved this study. We prepared dedifferentiated fat (DFAT) cells using the ceiling culture method, as described previously. Briefly, the adipose tissue (approximately 1 g) was cut into small pieces and digested with a 0.1% type I collagenase solution (Koken Co., Ltd., Tokyo, Japan). […] The cells that adhered to the upper surface of the flasks were cultured for conversion to dedifferentiated fat cells. […] Cells at passages 2–4 were used for differentiation experiments.
Cells were grown to confluency in 24-well plates and incubated for a week in DMEM containing 10% FBS, 100 nM dexamethasone (Merk), 10 mM β-glycerophosphate (Merk), and […] L-ascorbic acid-2-phosphate (Merk), with 100 nM of each compound. The induction medium was replaced on day 4. The alkaline phosphatase (ALP) activity in the cell lysates was determined on day 7 with a lab assay ALP kit (Fujifilm wako). The total protein content was determined with the BCA protein assay kit (Thermo Fisher Scientific). ALP levels were normalized to the total protein content.

[6] = tested on: CYP24A1 expression in HEK293 cells; assay: CYP24A1 expression (RT-qPCR) in HEK293 cells; settings: HEK293 kidney cells, 100 nM, 24 h
[7] = tested on: CYP24A1 expression in MG63 cells; assay: CYP24A1 expression (RT-qPCR) in MG63 cells; settings: MG63 bone cells, 100 nM, 24 h
VDR with NCoR = molecular target: T5, VDR with NCoR (Homo sapiens, UniProt P11473); assay: Mammalian two-hybrid assay, dissociation of NCoR from the VDR
T5 sequence (P11473 1-427): T1 sequence (P11473 1-427)

recombinant hVDR-LBD [8] = molecular target: T2, recombinant hVDR-LBD; settings: for VDR affinity, % of that of 1,25(OH)2D3: relative to 1,25(OH)2D3; for fold lower activity of rapidly eluting epimer than the other 25-epimer: affinity for human VDR, within each 25-epimer pair
[9] = tested on: CYP24A1 expression in H292 cells; assay: CYP24A1 expression (RT-qPCR) in H292 cells; settings: H292 lung cells, 100 nM, 24 h
[10] = tested on: CYP24A1 expression in all cells (HEK293, SW480, U937, HaCaT, MG63, H292); assay: CYP24A1 expression (RT-qPCR), all cells tested; settings: 100 nM, 24 h
[11] = this study, read-out: Transcriptional Activity EC50
[12] = read-out: Transcriptional activity EC50

Row | SMILES | EC50 (VDR with RXRα) | CYP24A1 expression relative to natural hormone 1 [1] | CYP24A1 expression relative to natural hormone 1 [2] | IC50 (recombinant hVDR-LBD [3]) | EC50 (VDR with SRC-1) | Transcriptional activity efficacy (hVDR) | Emax (hVDR; this study) | EC50 (hVDR; [11]) | CYP24A1 expression relative to natural hormone 1 [4] | ALP activity [5] | CYP24A1 expression relative to natural hormone 1 [6] | CYP24A1 expression relative to natural hormone 1 [7] | IC50 (VDR with NCoR) | VDR affinity, % of that of 1,25(OH)2D3 (recombinant hVDR-LBD [8]) | CYP24A1 expression relative to natural hormone 1 [9] | EC50 (hVDR; [12]) | CYP24A1 expression activity in all cells [10] | fold lower activity of rapidly eluting epimer than the other 25-epimer (recombinant hVDR-LBD [8])
1 | C=C1[C@H](O)CC(=C/C=C2\CCC[C@]3(C)[C@@H]([C@H](C)CC#C[C@](O)(CC)C45CC6CC(CC(C6)C4)C5)CC[C@@H]23)C[C@H]1O [ADKM4, (25S)-25-(1-Adamantyl)-1a,25-dihydroxy-26-methyl-2-methylidene-23-yne-19,27-dinorvitamin D3] | 1.1 nM | 85.1% | 91.9% | 1.3 nM | 1.2 nM | 104% | 104% | 0.2 nM | 126% | 72.6% | 91.5% | 73.3% | 0.5 nM | 27% | 113% |  |  | 
2 | C=C1[C@H](O)CC(=C/C=C2\CCC[C@]3(C)[C@@H]([C@H](C)CC#C[C@@](C)(O)C45CC6CC(CC(C6)C4)C5)CC[C@@H]23)C[C@H]1O [ADKM2, (25S)-25-(1-Adamantyl)-1α,25-dihydroxy-2-methylidene-23-yne-19,27-dinorvitamin D3] | 0.1 nM | 77.8% | 85.6% | 0.6 nM | 0.6 nM | 101% | 101% | 0.2 nM | 42.3% | 98.8% | 33.2% | 63% | 0.4 nM | 67% | 50.1% |  |  | 
3 | C=C1[C@H](O)CC(=C/C=C2\CCC[C@]3(C)[C@@H]([C@H](C)CC#C[C@@](O)(CCCC)C45CC6CC(CC(C6)C4)C5)CC[C@@H]23)C[C@H]1O [ADKM5, (25R)-25-(1-Adamantyl)-1α,25-dihydroxy-2-methylidene-26-propyl-23-yne-19,27-dinorvitamin D3] | 5.2 nM |  |  | 23.4 nM | 2.4 nM | 83% | 83% | 2.6 nM |  | 19% |  |  | 8.5 nM | 2% |  | 2.63 nM | 10-50% | 5–11 fold
4 | C=C1[C@H](O)CC(=C/C=C2\CCC[C@]3(C)[C@@H]([C@H](C)CC#C[C@@](O)(CC)C45CC6CC(CC(C6)C4)C5)CC[C@@H]23)C[C@H]1O [ADKM3, (25R)-25-(1-Adamantyl)-1a,25-dihydroxy-26-methyl-2-methylidene-23-yne-19,27-dinorvitamin D3] | 1.1 nM |  |  | 6.7 nM | 10.2 nM | 90% | 90% | 2.3 nM |  | 40.4% |  |  | 6.3 nM | 6% |  | 2.33 nM | 10-50% | 5–11 fold
5 | C=C1[C@H](O)CC(=C/C=C2\CCC[C@]3(C)[C@@H]([C@H](C)CC#C[C@](C)(O)C45CC6CC(CC(C6)C4)C5)CC[C@@H]23)C[C@H]1O [ADKM1, (25R)-25-(1-Adamantyl)-1α,25-dihydroxy-2-methylidene-23-yne-19,27-dinorvitamin D3] | 1.1 nM |  |  | 6.2 nM | 8.4 nM | 78% | 78% | 0.5 nM |  | 41% |  |  | 2.3 nM | 6% |  | 0.53 nM | 10-50% | 5–11 fold
